Experimental data: patent publication US11214803B2, “Modulators of YAP1 expression” (Ionis Pharmaceuticals, Inc., priority 2019, dated 2022)
Strand notation (5' to 3'): a small letter for the sugar, then the base; units joined by * are phosphorothioate-linked, units joined directly phosphodiester-linked; [ ] holds rarer units or linkages, { } end groups; capitals alone tell only the bases. k = constrained ethyl (cEt); [5mC] = 5-methylcytosine; d = 2'-deoxy (DNA)

What follows are substances tested on Yap1 mRNA (assay: Antisense inhibition of human Yap1 in A-431 cells by cEt gapmers, single dose (Example 2, RTS4814)). Conditions: A-431 cells, 5,000 cells per well, free uptake, 2,000 nM modified oligonucleotide, approx. 48 hours, RTS4814, normalized to RIBOGREEN; Table 4; asterisk (*) = targets amplicon region of primer probe set.
Assay type: cell-based
How it was run: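 Each 16-nucleoside gapmer (ten-deoxy gap, three-cEt wings) is tested once at 2,000 nM in A-431 cells by free uptake. Yap1 mRNA after about 48 hours is measured by quantitative RT-PCR and expressed relative to untreated control.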

Row | Substance | YAP1 (% UTC)
1 | 716460 (kT*kA*kT*dT*d[5mC]*dT*dA*dA*dA*dT*dG*d[5mC]*dA*kT*kA*k[5mC]; antisense) [Compound 716460] | 86
2 | 716430 (kT*kA*kA*d[5mC]*dT*dG*dG*dG*d[5mC]*dA*dA*dA*dA*kG*kG*kA; antisense) [Compound 716430] | 28

Same assay, conditions: Table 5; A-431 cells, 5,000 cells per well, free uptake, 2,000 nM modified oligonucleotide, approx. 48 hours; RTS4814; normalized to RIBOGREEN; Yap1 mRNA relative to untreated control cells

Row | Substance | YAP1 (% UTC)
3 | 716497 (kA*kG*k[5mC]*dA*dG*d[5mC]*dT*dT*dT*dT*dG*d[5mC]*d[5mC]*kA*kG*kG; antisense) [Compound 716497] | 65
4 | 716392 (k[5mC]*kT*kG*d[5mC]*d[5mC]*dA*d[5mC]*d[5mC]*d[5mC]*dA*dT*dG*dA*k[5mC]*kG*k[5mC]; antisense) [Compound 716392] | 95
5 | 716473 (k[5mC]*kT*kA*dT*dA*dA*dA*dG*d[5mC]*dT*dT*dA*dT*kT*kT*k[5mC]; antisense) [Compound 716473] | 104

Same assay, conditions: Table 6; A-431 cells, 5,000 cells per well, free uptake, 2,000 nM modified oligonucleotide, approx. 48 hours; RTS4814; normalized to RIBOGREEN; Yap1 mRNA relative to untreated control cells

Row | Substance | YAP1 (% UTC)
6 | 716519 (antisense kG*kT*kT*dT*dA*dT*dA*dA*dA*dG*dT*dT*d[5mC]*kT*k[5mC]*kT) [Compound 716519] | 57
7 | 716543 (antisense kT*kA*kT*dT*dT*dG*dT*dA*dG*d[5mC]*dA*dA*dA*kG*kT*k[5mC]) [Compound 716543] | 35
8 | 716504 (kA*kT*kA*dA*dA*dA*dG*d[5mC]*d[5mC]*dT*dT*dA*dG*kA*kG*kT; antisense) [Compound 716504] | 112
9 | 716492 (kA*kA*kA*d[5mC]*dA*d[5mC]*dA*dG*dA*dG*dG*dT*dG*k[5mC]*kT*kA; antisense) [Compound 716492] | 72

Same assay, conditions: Table 18; A-431 cells, 5,000 cells per well, free uptake, 2,000 nM modified oligonucleotide, approx. 48 hours; RTS4814; normalized to RIBOGREEN; Yap1 mRNA as percent of untreated control

Row | Substance | YAP1 (% UTC)
10 | 1076292 (kT*kA*kT*dT*dA*dT*dT*dG*dA*dG*dT*dT*dA*kT*k[5mC]*k[5mC]; antisense) [Compound 1076292] | 27
11 | 1075684 (kT*k[5mC]*kT*dG*dA*dA*dA*dA*dA*dG*dT*dT*dA*kT*kG*k[5mC]; antisense) [Compound 1075684] | 78
12 | 1075524 (kT*kA*kA*dT*dT*dA*dA*dG*dG*dG*d[5mC]*d[5mC]*d[5mC]*kA*k[5mC]*kA; antisense) [Compound 1075524] | 71
13 | 1075940 (kA*k[5mC]*kT*d[5mC]*dA*dA*d[5mC]*dA*dA*d[5mC]*d[5mC]*d[5mC]*d[5mC]*kA*kA*kG; antisense) [Compound 1075940] | 54

Same assay, conditions: Table 19; A-431 cells, 5,000 cells per well, free uptake, 2,000 nM modified oligonucleotide, approx. 48 hours; RTS4814; normalized to RIBOGREEN; Yap1 mRNA as percent of untreated control

Row | Substance | YAP1 (% UTC)
14 | 1074789 (kA*kT*k[5mC]*dA*dA*d[5mC]*d[5mC]*dA*dT*dA*dA*dG*dT*kA*kG*kA; antisense) [Compound 1074789] | 17
15 | 1074917 (antisense k[5mC]*kA*kA*dG*dT*dT*dA*d[5mC]*dA*dT*d[5mC]*d[5mC]*d[5mC]*kG*kA*kG) [Compound 1074917] | 80
16 | 1075141 (antisense kT*kA*kT*dA*d[5mC]*dG*dA*dG*dA*dA*dG*dT*dT*kG*kA*kA) [Compound 1075141] | 54

Same assay, conditions: Table 20; Yap1 mRNA, percent of untreated control; 3-10-3 cEt gapmers targeting SEQ ID NO.: 1 and 2

Row | Substance | YAP1 (% UTC)
17 | 1075142 (antisense kG*kA*kT*dA*dT*dA*d[5mC]*dG*dA*dG*dA*dA*dG*kT*kT*kG) [Compound 1075142] | 16
18 | 1074662 (antisense kG*kG*kT*dA*dG*dA*dA*dT*dT*dT*d[5mC]*dA*dT*kT*kA*k[5mC]) [Compound 1074662] | 30
19 | 1075430 (antisense k[5mC]*kT*kT*dA*dA*d[5mC]*dT*dA*dA*d[5mC]*dT*dT*dG*kA*k[5mC]*k[5mC]) [Compound 1075430] | 96
20 | 1076262 (kA*kG*kA*d[5mC]*dA*dA*dT*dA*dG*dT*d[5mC]*dT*dG*kG*kG*k[5mC]; antisense) [Compound 1076262] | 41
21 | 1074150 (antisense kG*kG*k[5mC]*d[5mC]*dG*dA*dG*dG*dT*dG*dG*dA*dG*kA*kA*kG) [Compound 1074150] | 85

Same assay, conditions: Table 21; Yap1 mRNA, percent of untreated control; 3-10-3 cEt gapmers targeting SEQ ID NO.: 1 and 2

Row | Substance | YAP1 (% UTC)
22 | 1074215 (antisense kG*k[5mC]*kT*d[5mC]*d[5mC]*dG*dG*d[5mC]*dG*dG*d[5mC]*dT*dT*kG*kA*kA) [Compound 1074215] | 77

Same assay, conditions: Table 22; Yap1 mRNA as percent of untreated control; 3-10-3 cEt gapmers; single dose

Row | Substance | YAP1 (% UTC)
23 | 1075112 (antisense kA*kT*kA*dT*dA*dG*dG*dA*dA*dT*dA*dT*dG*kG*kG*kT) [Compound 1075112] | 6
24 | 1074312 (antisense kA*kT*kA*dT*dT*d[5mC]*d[5mC]*dG*d[5mC]*dA*dT*dT*dG*k[5mC]*k[5mC]*kT) [Compound 1074312] | 18
25 | 1074664 (antisense kG*k[5mC]*kA*dT*dT*d[5mC]*dT*dA*dG*dG*dT*dA*dG*kA*kA*kT) [Compound 1074664] | 49
26 | 1075880 (kA*kT*kT*dA*dA*d[5mC]*dT*dA*d[5mC]*dA*d[5mC]*d[5mC]*dA*k[5mC]*kG*kA; antisense) [Compound 1075880] | 30

Same assay, conditions: Table 23; Yap1 mRNA as percent of untreated control; 3-10-3 cEt gapmers; single dose

Row | Substance | YAP1 (% UTC)
27 | 1074217 (antisense kG*kG*kA*dT*dT*dT*dG*dG*dG*d[5mC]*dT*d[5mC]*d[5mC]*kG*kG*k[5mC]) [Compound 1074217] | 74
28 | 1074345 (antisense kT*k[5mC]*kT*dG*dA*dG*d[5mC]*dT*dA*dT*dT*dG*dG*kT*k[5mC]*kG) [Compound 1074345] | 8
29 | 1074153 (antisense k[5mC]*kA*k[5mC]*dG*dG*dG*d[5mC]*d[5mC]*dG*dA*dG*dG*dT*kG*kG*kA) [Compound 1074153] | 78

Same assay, conditions: Table 24; Yap1 mRNA as percent of untreated control; 3-10-3 cEt gapmers targeting SEQ ID NO.: 1, and 2

Row | Substance | YAP1 (% UTC)
30 | 1076426 (kA*k[5mC]*kG*dG*dG*dA*dA*dA*dA*dT*dT*d[5mC]*dT*kG*kG*kA; antisense) [Compound 1076426] | 9
31 | 1075946 (kG*k[5mC]*kT*dG*dA*dA*dT*dA*dA*dG*dT*dA*dA*k[5mC]*kT*kT; antisense) [Compound 1075946] | 20
32 | 1074346 (antisense kA*kT*k[5mC]*dT*dG*dA*dG*d[5mC]*dT*dA*dT*dT*dG*kG*kT*k[5mC]) [Compound 1074346] | 10
33 | 1074314 (antisense kA*kT*kT*dG*dA*dT*dA*dT*dT*d[5mC]*d[5mC]*dG*d[5mC]*kA*kT*kT) [Compound 1074314] | 12
34 | 1075626 (k[5mC]*kA*kT*dT*dA*dG*d[5mC]*d[5mC]*dA*dA*dA*dG*d[5mC]*kT*k[5mC]*kA; antisense) [Compound 1075626] | 34

Same assay, conditions: Table 25; Yap1 mRNA as percent of untreated control; 3-10-3 cEt gapmers targeting SEQ ID NO.: 1, and 2

Row | Substance | YAP1 (% UTC)
35 | 1076043 (k[5mC]*kA*kA*dA*dA*dA*dG*dG*d[5mC]*dT*dA*dT*dT*kG*kA*kG; antisense) [Compound 1076043] | 36
36 | 1074539 (antisense k[5mC]*kT*kA*dT*d[5mC]*d[5mC]*dA*d[5mC]*dA*dG*dT*dA*dA*kT*kA*kG) [Compound 1074539] | 62

Same assay, conditions: Table 32; Yap1 mRNA, percent of untreated control; 3-10-3 cEt gapmers targeting SEQ ID NO.: 1, and 2

Row | Substance | YAP1 (% UTC)
37 | 1074770 (kA*kT*k[5mC]*dT*dT*dA*dT*d[5mC]*d[5mC]*d[5mC]*dA*dA*dT*kG*k[5mC]*kT; antisense) [compound 1074770] | 15
38 | 1076242 (kA*kT*kG*d[5mC]*dA*dA*dT*dA*dA*dG*dG*dA*dA*k[5mC]*kA*kG; antisense) [compound 1076242] | 33
39 | 1076562 (kT*kA*kT*dT*dA*d[5mC]*dA*dG*dA*dG*dG*dG*dT*kA*kG*k[5mC]; antisense) [compound 1076562] | 17

Same assay, conditions: Table 33; Yap1 mRNA, percent of untreated control; 3-10-3 cEt gapmers targeting SEQ ID NO.: 1, and 2

Row | Substance | YAP1 (% UTC)
40 | 1075731 (k[5mC]*k[5mC]*k[5mC]*d[5mC]*dA*dA*dT*dA*dT*dT*dA*dT*d[5mC]*kT*kA*k[5mC]; antisense) [compound 1075731] | 40
41 | 1076211 (kA*kA*kT*dT*dT*dA*dT*dA*dT*dG*d[5mC]*dT*d[5mC]*k[5mC]*k[5mC]*kT; antisense) [compound 1076211] | 22

Same assay, conditions: Yap1 mRNA as percent of untreated control; A-431 cells; 3-10-3 cEt gapmers targeting SEQ ID NO.: 1, and 2; Table 30

Row | Substance | YAP1 (% UTC)
42 | 1075376 (antisense k[5mC]*k[5mC]*kT*dA*dA*dA*dT*dA*dT*d[5mC]*dA*dA*d[5mC]*kT*k[5mC]*k[5mC]) [compound 1075376] | 72
43 | 1075504 (k[5mC]*kT*kT*dA*dA*dA*dT*dG*dA*dG*dA*dG*dA*kA*k[5mC]*k[5mC]; antisense) [compound 1075504] | 71

Same assay, conditions: Yap1 mRNA as percent of untreated control; A-431 cells; 3-10-3 cEt gapmers targeting SEQ ID NO.: 1, and 2; Table 31

Row | Substance | YAP1 (% UTC)
44 | 1076561 (kG*kT*kA*dT*dA*d[5mC]*d[5mC]*dA*dA*dG*d[5mC]*dT*dA*k[5mC]*kT*k[5mC]; antisense) [compound 1076561] | 22
45 | 1074833 (kT*kG*k[5mC]*dG*dA*dG*dG*dA*dT*dA*dA*dA*dA*kT*k[5mC]*k[5mC]; antisense) [compound 1074833] | 17
